Assay: gradient 5% acetonitrile 3 min, to 50% in 2 min, to 85% in 15 min, held 3 min, 100 µL/min
Conditions: column: Zorbax Extend-C18 2.1 x 50 mm; eluents: water / acetonitrile, 0.1% formic acid
Procedure, shortened: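 Each retention time is based on an adduct peak selected computationally and verified by manual inspection. Measurements used HPLC–quadrupole time-of-flight mass spectrometry in positive and negative ionization mode on mixtures of ~100 pure standards. Chromatography ran on a Zorbax Extend-C18 column (2.1 × 50 mm, 1.8 μm) at 100 μL/min with water and acetonitrile, each containing 0.1% formic acid, and dead and dwell volumes of 40 μL and 900 μL.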

| RP-LC retention time | SMILES |
| --- | --- |
| 1030 s | Cc1nc(-c2cn(C(C)C)c3ncccc23)sc1C(=O)NCc1ccccc1F |
| 919 s | CCOC(=O)C1=C(CN2CCN(c3ccccn3)CC2)NC(=O)NC1c1cccs1 (stereo not given) |
| 1160 s | CCOC(=O)c1noc2nc(C)nc(Nc3ccc(CC)cc3)c12 |
| 588 s | CCn1cnc2cc(-c3noc(CNC(=O)c4ccco4)n3)ccc21 |
| 785 s | COc1cccc(Cn2c(=O)c3ccnn3c3ccc(C(=O)O)cc32)c1 |
| 755 s | Cc1cccc(C)c1Nc1c(-c2ccc(N3CCOCC3)cc2)nc2cnccn12 |
| 817 s | Cc1ccc(-c2nc3nc(C)cc(C)n3c2Nc2cccc(C(F)(F)F)c2)cc1 |
| 810 s | Cc1ccccc1CC(=O)NC1CCN(c2ccc(F)cc2)C1=O (stereo not given) |
| 746 s | CCC(C)NC(=O)C1CCCN(c2nnc(C)c3c(C)n(-c4ccc(Cl)cc4)nc23)C1 (stereo not given) |
| 920 s | COc1cc(-c2noc(Cn3cnc4c(cnn4-c4ccccc4)c3=O)n2)cc(OC)c1OC |
| 539 s | COc1ccc(CCNC(=O)CSc2nnc(Cc3csc(N)n3)n2C)cc1OC |
| 937 s | O=C(Cn1c(=O)cc(-c2nc(C3CC3)no2)c2ccccc21)Nc1ccccc1 |
| 1270 s | Cc1ccc(-c2csc(Cc3nc(-c4cccc(F)c4)no3)n2)cc1 |
| 764 s | COCCCNC(=O)c1nc2ccccn2c1-c1ccc(Cl)cc1 |
| 1030 s | Clc1ccc(-c2nc(NC3CCCCCC3)c3ccccc3n2)cc1 |
| 1060 s | COc1ccc(-n2cc(C(=O)OCC(=O)OC(C)C)c3ccccc3c2=O)cc1 |
| 902 s | Cc1ccnc(Nc2nc(-c3ccc(C)c(C)c3)cs2)c1 |
| 1040 s | O=S(=O)(c1ccccc1)N1CCc2nc(-c3ccc(F)cc3)ncc2C1 |
| 669 s | Cc1cccc2nnc(N3CCCC(C(=O)Nc4ccc5c(c4)OCCO5)C3)n12 (stereo not given) |
| 1020 s | O=C(O)c1ccccc1Nc1cccc2c1C(=O)c1cccc(Nc3ccccc3C(=O)O)c1C2=O |
| 627 s | Fc1ccccc1-c1nc(-c2ccc3c(c2)ncn3CCN2CCOCC2)no1 |
| 989 s | COc1cc(-c2nc3cccc(C)n3c2Nc2ccc(C)cc2)ccc1O |
| 660 s | CCOC(=O)Nc1c2ccccc2nc2ccccc12 |
| 906 s | O=C(Nc1ccccc1F)C(=O)c1cn(CC(=O)N2CCOCC2)c2ccccc12 |
| 1000 s | COc1ccc(-c2noc(Cc3nnc(-c4cccc(F)c4)o3)n2)cc1F |
| 648 s | Cc1nc2ccn(Cc3cccnc3)c(=O)c2cc1C(=O)NCCC1=CCCCC1 |
| 572 s | Cc1cc(F)ccc1S(=O)(=O)NCC(c1ccsc1)N1CCOCC1 (stereo not given) |

| RP-LC retention time | SMILES |
| --- | --- |
| 962 s | Cc1occc1-c1nnc(SCC(=O)N2CCCc3ccccc32)o1 |
| 758 s | O=C(Cc1ccc(Cl)cc1)N1CCC2(C1)C(=O)Nc1ccccc12 (stereo not given) |
| 948 s | O=C(Nc1cc(F)ccc1F)N1CCC(CCNC(=O)C2(c3ccccc3)CC2)CC1 |
| 872 s | Cc1ccc(-n2nc(C)c3c(=O)n(CC(=O)NCc4ccccc4Cl)ccc32)cc1 |
| 710 s | NS(=O)(=O)c1ccc(NS(=O)(=O)c2cc(-c3ccno3)cs2)cc1 |
| 892 s | CC(=O)c1cccc(NC(=O)NC(c2ccccc2)c2nnc(-c3ccccc3)o2)c1 (stereo not given) |
| 714 s | COc1ccc(N2CCN(C(=O)c3cn4nc(Cl)ccc4n3)CC2)cc1 |
| 1000 s | COc1ccc(NC(=O)N2CCC3(CC2)Nc2ccccc2-n2cccc23)c(OC)c1 |
| 813 s | CCN1C(=O)c2cc(C(=O)Nc3ccc(F)cc3)nn2CC1(C)C(=O)NC1CCCC1 (stereo not given) |
| 938 s | CN(C(=O)Cn1cnc2c(-c3ccccc3)csc2c1=O)c1ccc(F)cc1 |
| 839 s | Cc1ccccc1OCc1nc(-c2ccc3ncn(C(C)C)c3c2)no1 |
| 737 s | N#Cc1ccc(S(=O)(=O)N2CCC(c3cc(N)on3)CC2)cc1 |
| 920 s | O=C(NC1CCCc2ccccc21)c1ccc(-n2nc(N3CCCC3)ccc2=O)cc1 (stereo not given) |
| 586 s | OC(c1ccncc1)c1cccc(Cl)c1F (stereo not given) |
| 794 s | Cc1ccc(NC(=O)C2CCN(S(=O)(=O)c3ccc4c(c3)sc(=O)n4C(C)C)CC2)nc1 |
| 626 s | COc1ccc(CC(=O)NC2CCN(c3nnc4ccccn34)CC2)cc1 |
| 860 s | CCC(CC)C(=O)NCCc1c[nH]c2ccc(C)cc12 |
| 726 s | COc1cccc(NC(=O)N2CCN(Cc3nc4ccc(Cl)cc4o3)CC2)c1 |
| 826 s | CCc1nnc(-c2ccc(NC(=O)c3ccc(S(=O)(=O)N(CC)CC)cc3)cc2)o1 |
| 735 s | CC(C)NC(=O)Cn1cccc(-c2nc(-c3ccc(F)cc3)no2)c1=O |
| 897 s | CS(=O)(=O)Nc1ccc(-c2noc(-c3ccc4c(c3)OCO4)n2)cc1 |
| 1090 s | Cc1cc(-c2c(C)sc(C)c2S(=O)(=O)NCc2ccc(Cl)cc2)n[nH]1 |
| 721 s | O=C(COc1ccccc1F)NCC1CN(c2ccc3c(c2)OCO3)C(=O)O1 (stereo not given) |
| 1100 s | O=S(=O)(Cc1ccccc1Cl)N1CCc2nc(-c3ccc(F)cc3)ncc2C1 |
| 657 s | O=C(NCc1[nH]nc2ccccc12)c1cccc2[nH]ccc12 |
| 1020 s | COc1ccc(NS(=O)(=O)c2c(C)sc(C)c2-c2cc(C(F)(F)F)on2)cc1OC |

The remaining lines, values behind:

| SMILES | RP-LC retention time |
| --- | --- |
| CC(=O)N1CCCSc2ccc(S(=O)(=O)N3CCN(c4cccc(Cl)c4)CC3)cc21 | 1050 s |
| O=C1CCC(CCNS(=O)(=O)c2ccc3c(c2)CCCC3)CCN1CC1CC1 (stereo not given) | 938 s |
| COc1ccc2[nH]c(=O)c(CCC(=O)NCCCN3CCCC3=O)cc2c1 | 592 s |
| CCn1nc(C)c(-c2cc(C(=O)NCC34CCC=C3N(C)C(=O)CC4)no2)c1C (stereo not given) | 741 s |
| COc1ccc(C2C(C(=O)N3CCN(C)CC3)c3cc(OC)c(OC)cc3C(=O)N2C)cc1 (stereo not given) | 640 s |
| CCOC(=O)c1c(C)n(CC(=O)OC)c2ccc(OC)cc12 | 904 s |
| COc1cc(NC(=O)N2CCCC2c2nncn2C2CCCC2)cc(OC)c1 (stereo not given) | 677 s |
| O=C(C1CCCN(c2ncccc2-c2noc(C3CCC3)n2)C1)N1CCCCC1 (stereo not given) | 928 s |
| Cn1ncn2cc(S(=O)(=O)N3CCN(c4ccccn4)CC3)cc2c1=O | 578 s |
| O=C1C2C3C=CC(C3)C2C(=O)N1CCN1CCN(Cc2ccc([N+](=O)[O-])cc2)CC1 (stereo not given) | 563 s |
| Cn1nccc1C(=O)N1CCN(S(=O)(=O)c2ccc3c(c2)sc(=O)n3C)CC1 | 699 s |
| CCOC(=O)c1c(C)c(CCC(=O)NCCN2CCCCCC2)c(C)n1C | 656 s |
| Cn1nc2n(c1=O)CCN(S(=O)(=O)c1ccc(C#N)cc1)CC2 | 655 s |
| COC(=O)c1[nH]c(C)c(C(=O)C(C)N(CC2CCCCC2)C(=O)c2ccc(F)cc2)c1C (stereo not given) | 1080 s |
| O=C(c1nnc(-c2csc(S(=O)(=O)N3CCN(c4ncccn4)CC3)c2)o1)N1CCCC1 | 913 s |
| COc1ccc(S(=O)(=O)N2CCCC(C(=O)NCCC3=CCCCC3)C2)cc1C (stereo not given) | 1070 s |
| Cc1ccc2[nH]cc(CCNC(=O)CC3CCN(C(=O)C4CCCCC4)CC3)c2c1 | 850 s |
| CCc1ccc(S(=O)(=O)N2CCC(n3cnnc3CC)CC2)cc1 | 746 s |
| O=C1/C(=C/c2cc(Br)cc3c2OCOC3)Oc2cc(OC(=O)C3CC3)ccc21 | 1200 s |

| SMILES | RP-LC retention time |
| --- | --- |
| COC1CN(c2cccc(F)c2)C12CCN(C(=O)NC1CCCCC1)CC2 (stereo not given) | 1030 s |
| COCCN1C(=O)[C@H]2CN(Cc3ccc(OC)cc3OC)C[C@H]2C1=O | 594 s |
| CO[C@H]1C(=O)N(C(C)C)[C@H]1C1CCN(C(=O)c2ccsc2)CC1 | 693 s |
| CCC(C)NC(=O)N1CCCN(C2=NS(=O)(=O)C(c3ccc(Cl)cc3)=C2C)CC1 (stereo not given) | 825 s |
| Cc1nc([C@@H]2CN(C(=O)c3ccc(Cl)s3)C[C@H]2C(N)=O)n[nH]1 | 608 s |
| C=CCOc1c(CCC)cc(CCC)cc1C(N)=O | 1130 s |
| CCN1C(=O)CCC2(C(=O)NCCc3c[nH]c4ccccc34)CCCC=C12 (stereo not given) | 743 s |
| O=C(C1CCN(c2nnc3ccc(Cl)cn23)CC1)N1CCOCC1 | 599 s |
| CC(C)(NC(=O)c1ccoc1)c1nc2c(c(C(N)=O)n1)OCO2 | 818 s |
| COc1nn(C)cc1C(=O)Nc1nnc(C)s1 | 583 s |
| CCOC(=O)CCNC(=O)N1CCCN(C)c2ccccc21 | 623 s |
| CC1CCCCC12NCCN=C2NCc1ccc(F)cc1 (stereo not given) | 603 s |
| CC(C)C(=O)N1[C@H]2CC[C@@H]1c1cnc(-c3ccc(F)cc3)nc1C2 | 871 s |
| O=C(CN1C(=O)C2CCCCN2c2ccc(S(=O)(=O)N3CCCC3)cc21)NCc1ccccn1 (stereo not given) | 654 s |
| CN(CC1CCOCC1)C(=O)c1cccs1 | 664 s |
| Cc1nc(Nc2ccc(F)cn2)sc1C(=O)N1CCN(C2CCCCC2)CC1 | 639 s |
| Cc1cc(C)c(S(=O)(=O)N2CCCCC2C(=O)N2CCN(c3ccccc3F)CC2)c(C)c1 (stereo not given) | 1250 s |
| CCn1cc(S(=O)(=O)Nc2ccc3nc(S(=O)(=O)CC)sc3c2)cn1 | 693 s |
